Assays:
[1] = tested on: PTP1B; assay: Reversibility of PTP1B inhibition by triterpenes (Table 2); type: biochemical
[2] = target: PTP1B321 (Homo sapiens, UniProt P18031); assay: Triterpene inhibition of PTP1B321 (Table 2); type: biochemical
[3] = target: PTP1B405 (Homo sapiens, UniProt P18031); assay: Triterpene inhibition of PTP1B405 (Table 2); type: biochemical
[4] = tested on: Mecp2 mutant mice; assay: Anti-diabetic small molecules in Mecp2 mutant mice (FIG. 6D)
[5] = tested on: Mecp2−/y mice; assay: Survival of Mecp2-null male mice; settings: for survival (in words): Mecp2-null male mice, 5 mg/kg
[6] = tested on: panel of six PTPs and two dual-specificity phosphatases; assay: Specificity against a panel of phosphatases; type: biochemical
Method: (§1) In this example, in order to determine the significance of the elevated PTP1B levels in animal models of Rett syndrome, the effects of small molecule inhibitors of the phosphatase were tested. Using para-Nitro Phenyl Phosphate (pNPP) as substrate, PTP1B inhibition by CPT157633 was studied (FIG. 13A). […] To obtain structural insights into the PTP1B-CPT157633 interaction, both biomolecular NMR spectroscopy and X-ray crystallography were used. Residues 1-301 from the catalytic domain of PTP1B were expressed in D2O-based medium and 2D [^1H,^15N] TROSY spectra were recorded in the absence and presence of CPT157633. […] This was confirmed by the crystal structure of the PTP1B:CTP157633 complex, which illustrated a non-covalent interaction. Electrostatic interactions made by the compound to critical active site residues are highlighted in FIG. 13G.
(§2) A second inhibitor of PTP1B that exerts its effect on the enzyme by a different mechanism was characterized. […] It inhibited PTP1B with selectivity compared to a panel of eight phosphatases investigated.

[7] = target: PTP1B (Homo sapiens (Human), UniProt P18031); assay: PTP1B phosphatase inhibition; type: biochemical
Method: as §1, §2

[8] = tested on: Mecp2−/y mice; assay: Glucose tolerance test in Mecp2−/y male mice; settings: 5 mg/Kg, two weeks after treatment

PTP1B (Homo sapiens (Human), UniProt P18031), sequence (P18031 whole entry): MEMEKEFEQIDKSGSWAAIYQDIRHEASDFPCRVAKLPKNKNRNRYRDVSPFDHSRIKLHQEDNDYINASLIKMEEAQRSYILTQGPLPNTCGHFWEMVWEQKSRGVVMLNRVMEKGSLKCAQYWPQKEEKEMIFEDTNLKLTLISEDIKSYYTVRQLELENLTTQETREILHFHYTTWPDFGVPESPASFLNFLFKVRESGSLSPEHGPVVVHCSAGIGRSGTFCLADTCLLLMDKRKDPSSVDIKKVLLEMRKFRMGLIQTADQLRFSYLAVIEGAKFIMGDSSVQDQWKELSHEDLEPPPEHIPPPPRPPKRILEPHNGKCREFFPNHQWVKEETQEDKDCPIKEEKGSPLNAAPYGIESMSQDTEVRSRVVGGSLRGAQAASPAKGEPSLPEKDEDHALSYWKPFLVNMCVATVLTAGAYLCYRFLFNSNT

Row | Ki [2] [µM] | Ki [3] [µM] | Structure (SMILES) | Reversibility [1] | further results
1 | 8.3 | 7 | CC1(C)CC[C@]2(C(=O)O)CC[C@]3(C)C(=CC[C@@H]4[C@@]5(C)C[C@@H](O)[C@H](O)[C@@](C)(CO)[C@@H]5CC[C@]43C)[C@@H]2C1 | Reversible | –
2 | 3.6 | 2 | CC1(C)CC[C@]2(C(=O)O)CC[C@]3(C)C(=CC[C@@H]4[C@@]5(C)CC[C@H](O)[C@@](C)(CO)[C@@H]5CC[C@]43C)[C@@H]2C1 | Reversible | –
3 | 2.5 | 1.5 | C=C(C)[C@@H]1CC[C@]2(C)CC[C@]3(C)[C@H](CC[C@@H]4[C@@]5(C)CC[C@H](O)C(C)(C)[C@@H]5CC[C@]43C)[C@@H]12 | Reversible | –
4 | 3 | 1.5 | C[C@H]1[C@H](C)CC[C@]2(C(=O)O)CC[C@]3(C)C(=CC[C@@H]4[C@@]5(C)C[C@@H](O)[C@H](O)C(C)(C)[C@@H]5CC[C@]43C)[C@H]12 | Irreversible | –
5 | 6 | 4 | CC1(C)CC[C@]2(C)CC[C@]3(C)C(=CC[C@@H]4[C@@]5(C)CC[C@@H](O)[C@](C)(C(=O)O)[C@@H]5CC[C@]43C)[C@@H]2C1 | Reversible | –
6 | 4 | 2 | C[C@H]1C(=O)CC[C@H]2[C@]1(C)CC[C@]13C[C@@]14CC[C@@]1(C)CCC(C)(C)C[C@]15C[C@]54CC[C@@]23C | Reversible | –
7 | 15 | 15 | COC[C@]12CC[C@@H](C)[C@H](C)[C@H]1[C@@]1(O)C=C[C@@H]3[C@@]4(C)CCC(=O)C(C)(C)[C@@H]4CC[C@@]3(C)[C@]1(C)CC2 | Reversible | –
8 | 13 | 11 | CC1CCC23CCC4(C)C5(C)CCC6C(C)(C)C(=O)CCC6(C)C5C=CC4(OC2)C3C1C (stereo not drawn) | Reversible | –
9 | 7 | 5 | CC1(C)C=C2[C@H]3CC[C@@H]4[C@@]5(C)CCC(=O)C(C)(C)[C@@H]5CC[C@@]4(C)[C@]3(C)CC[C@@]2(C(=O)O)CC1 | Reversible | –
10 | 6 | 4 | C[C@H]1[C@H](C)CC[C@]2(C)CC[C@]3(C)C(=CC[C@@H]4[C@@]5(C)CC[C@H](O)C(C)(C)[C@@H]5CC[C@]43C)[C@H]12 | Irreversible | –
11 | 7 | 4.4 | C=C(C)[C@@H]1CC[C@]2(C(=O)O)CC[C@]3(C)[C@H](CC[C@@H]4[C@@]5(C)CC[C@H](OC(=O)CC(C)(C)C(=O)O)C(C)(C)[C@@H]5CC[C@]43C)[C@@H]12 | Irreversible | –
12 | 15 | 9 | CC1(C)CC[C@]2(C)CC[C@]3(C)[C@H](CC[C@@H]4[C@@]5(C)CCCC(C)(C)[C@@H]5CC[C@]43C)[C@@H]2C1 | Reversible | –
13 | 7 | 5 | CC1(C)[C@@H](OC(=O)CCC(=O)O)CC[C@]2(C)[C@H]3C(=O)C=C4[C@@H]5C[C@@](C)(C(=O)O)CC[C@]5(C)CC[C@@]4(C)[C@]3(C)CC[C@@H]12 | Reversible | –
14 | 8 | 5 | CC1(C)CC[C@]2(C)CC=C3C(C)(CC[C@@H]4[C@@]5(C)CC[C@H](O)C(C)(C)[C@@H]5CC[C@@]34C)[C@@H]2C1 (stereo partly drawn) | Reversible | –
15 | 18 | 22 | CC/C=C/C(C)(O)OCC1(C)C(=O)CCC2(C)C1CCC1(C)C2CCC2C3C(C)C(C)CCC3(C)CCC21C (stereo not drawn) | Reversible | –
16 | 36 | 25 | C[C@H]1CC[C@@]2(OC1)O[C@H]1C[C@H]3[C@@H]4CC=C5C[C@@H](O)CC[C@]5(C)[C@H]4CC[C@]3(C)[C@H]1[C@@H]2C | Reversible | –

Second part, the compound before the results:

Row | Structure (SMILES) | Ki [2] [µM] | Ki [3] [µM] | Reversibility [1] | further results
17 | CC1(C)[C@@H](O)CC[C@]2(C)[C@H]3C(=O)C=C4[C@@H]5C[C@@](C)(C(=O)O)CC[C@]5(C)CC[C@@]4(C)[C@]3(C)CC[C@@H]12 | – | – | Reversible | –
18 | CC1=C(O)C(=O)C=C2C1=CC=C1[C@@]2(C)CC[C@@]2(C)[C@@H]3C[C@](C)(C(=O)O)CC[C@]3(C)CC[C@]12C | 10 | 10 | Irreversible | –
19 | COC(=O)[C@]1(C)CC[C@]2(C)CC[C@]3(C)C4=CC=C5C(=CC(=O)C(O)=C5C)[C@]4(C)CC[C@@]3(C)[C@@H]2C1 | 10 | 8 | Irreversible | –
20 | CC1(C)CC[C@]2(C(=O)O)CC[C@]3(C)C(=CCC4[C@@]5(C)C[C@@H](O)[C@H](O)C(C)(C)[C@@H]5CC[C@]43C)[C@@H]2C1 (stereo partly drawn) | 10 | 5.7 | Reversible | –
21 | C=C(C)[C@@H]1CC[C@]2(CO)CC[C@]3(C)[C@H](CC[C@@H]4[C@@]5(C)CC[C@H](O)C(C)(C)[C@@H]5CC[C@]43C)[C@@H]12 | 3 | 2 | Reversible | –
22 | C[C@H]1[C@H](C)CC[C@]2(CO)CC[C@]3(C)C(=CC[C@@H]4[C@@]5(C)CC[C@H](O)C(C)(C)[C@@H]5CC[C@]43C)[C@H]12 | – | – | Reversible | –
23 | C[C@H]1[C@H](C)CC[C@]2(C(=O)O)CC[C@]3(C)C(=CC[C@@H]4[C@@]5(C)CC[C@H](O)C(C)(C)C5CC[C@]43C)[C@H]12 (stereo partly drawn) | – | – | Reversible | –
24 | C=C(C)C1CC[C@]2(C(=O)O)CC[C@]3(C)[C@H](CC[C@@H]4[C@@]5(C)CC[C@H](O)C(C)(C)[C@@H]5CC[C@]43C)[C@@H]12 (stereo partly drawn) | 3 | 0.7 | Irreversible | –
25 | CC1(C)CC[C@]2(C(=O)O)CC[C@]3(C)C(=CC[C@@H]4[C@@]5(C)CC[C@H](O)C(C)(C)[C@@H]5CC[C@]43C)[C@@H]2C1 | – | – | Reversible | –
26 | CC(C)[C@H]1CC[C@]2(C)[C@H]3CC[C@@H]4[C@@]5(C)CCCC(C)(C)[C@@H]5CC[C@@]4(C)[C@]3(C)CC[C@@H]12 | 9 | 5.7 | Reversible | –
27 | CC1(C)CCC[C@](C)([C@H]2CC[C@]3(C)[C@@H]2[C@H](O)C[C@@H]2[C@@]4(C)CC[C@H](O)C(C)(C)[C@@H]4[C@H](O)C[C@]23C)O1 | 14 | 10 | Reversible | –
28 | NC(=O)c1ncn([C@@H]2O[C@H](CO)[C@@H](O)[C@H]2O)c1N [AICAR] | – | – | – | effectiveness compared with PTP1B inhibitors [4]: none of the three inhibitors were as effective as PTP1B inhibitors
29 | C[C@@H]1CC[C@]2(C(=O)O)CC[C@]3(C)C(=CCC4[C@@]5(C)CC[C@H](O)C(C)(C)C5CC[C@]43C)C2[C@H]1C (stereo partly drawn) [UA001, ursolic acid, reference compound] | – | – | – | survival (in words) [5]: improved the survival
30 | C[C@@H]1CC[C@]2(C(=O)NCCCCCCCCCCC(=O)N[C@@H](Cc3ccccc3)C(=O)O)CC[C@]3(C)C(=CCC4[C@@]5(C)CC[C@H](O)C(C)(C)C5CC[C@]43C)C2[C@H]1C (stereo partly drawn) [UA0713] | – | – | – | effect against phosphatase panel compared to PTP1B [6]: selectivity; survival (in words) [5]: improved the survival; increase in survival ([5]; Mecp2−/y male mice, 5 mg/Kg, versus saline): 2 fold; median life-span ([5]; Mecp2−/y male mice, 5 mg/Kg, saline 40 days): 95 days; mode of inhibition of PTP1B [7]: non-competitive; Ki ([7]; substrate not stated): 0.15 µM; glucose intolerance [8]: markedly reduced
31 | CN(C)C(=N)N=C(N)N [metformin] | – | – | – | effectiveness compared with PTP1B inhibitors [4]: none of the three inhibitors were as effective as PTP1B inhibitors
32 | CN(CCOc1ccc(CC2SC(=O)NC2=O)cc1)c1ccccn1 (stereo not drawn) [rosiglitazone] | – | – | – | effectiveness compared with PTP1B inhibitors [4]: none of the three inhibitors were as effective as PTP1B inhibitors

Source: patent US11660306B2, “Treatment of Rett syndrome” (Cold Spring Harbor Laboratory, priority 2014, dated 2023)
